In ChEMBL document CHEMBL5042526, “Design, Synthesis, and Biological Evaluation of Triazolone Derivatives as Potent PPARα/δ Dual Agonists for the Treatment of Nonalcoholic Steatohepatitis” (J Med Chem, 2022):
Calls of active or inactive are those of the source. No cut-off for these calls is given here.

Columns and labels:
[1] = system: Mus musculus; test: Anti-fibrosis effect in CCl4 induced liver fibrosis C57BL/6JNifdc mouse model assessed as downregulation of Col1a1 expression at 3 to 30 mg/kg, po after 20 hrs by Western blot analysis; format: functional, organism-based; settings: dose 3-30 mg/kg
[2] = target: T1, Peroxisome proliferator-activated receptor alpha (Mus musculus, UniProt P23204); test: Agonist activity at mouse PPARalpha transfected in Cos7 cells co-expressing with pBIND and pGL4.35 Gal4 UAS Luc reporter plasmid by measuring luciferase activity incubated for 16 hrs by luciferase reporter gene assay
T1 sequence (P23204 whole entry): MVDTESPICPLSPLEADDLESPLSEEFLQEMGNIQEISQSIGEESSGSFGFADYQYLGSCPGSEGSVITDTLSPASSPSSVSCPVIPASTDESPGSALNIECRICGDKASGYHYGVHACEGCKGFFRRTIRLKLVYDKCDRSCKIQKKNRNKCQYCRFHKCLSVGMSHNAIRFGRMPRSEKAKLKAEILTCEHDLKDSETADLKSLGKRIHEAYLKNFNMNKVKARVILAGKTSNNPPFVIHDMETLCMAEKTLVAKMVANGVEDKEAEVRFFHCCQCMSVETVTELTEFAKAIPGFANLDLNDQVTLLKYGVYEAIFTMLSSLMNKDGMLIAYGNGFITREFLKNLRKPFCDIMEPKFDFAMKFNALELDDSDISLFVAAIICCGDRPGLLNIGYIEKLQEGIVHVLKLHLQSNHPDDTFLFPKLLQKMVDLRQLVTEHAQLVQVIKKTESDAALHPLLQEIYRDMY

[3] = system: Mus musculus; test: Anti-NASH activity in HF-CDAA-induced nonalcoholic steatohepatitis C57BL/6JNifdc mouse model assessed as reduction in steatosis by measuring hepatic total cholesterol level at 3 to 30 mg/kg, po; format: functional, organism-based; settings: dose 3-30 mg/kg
[4] = system: Mus musculus; test: In vivo agonist activity against PPARalpha/delta assessed as upregulation of Ucp3 mRNA expression in C57BL/6Nifdc mouse liver at 10 mg/kg, po for 4 days; format: functional, organism-based; settings: time 4.0 day
[5] = system: Mus musculus; test: In vivo agonist activity against PPARalpha/delta assessed as upregulation of -Cidea mRNA expression in C57BL/6Nifdc mouse skeletal muscle at 10 mg/kg, po for 4 days; format: functional, organism-based; settings: time 4.0 day
[6] = system: Mus musculus; test: In vivo agonist activity against PPARalpha/delta assessed as upregulation of Cd36 mRNA expression in C57BL/6Nifdc mouse liver at 10 mg/kg, po for 4 days; format: functional, organism-based; settings: time 4.0 day
[7] = system: Mus musculus; test: In vivo agonist activity against PPARalpha/delta assessed as upregulation of Pex11a mRNA expression in C57BL/6Nifdc mouse skeletal muscle at 10 mg/kg, po for 4 days; format: functional, organism-based; settings: time 4.0 day
[8] = system: Mus musculus; test: Anti-fibrosis effect in CCl4 induced liver fibrosis C57BL/6JNifdc mouse model assessed as decrease in level of hydroxyproline level at 3 to 30 mg/kg, po after 20 hrs […]; format: functional, organism-based; settings: dose 3-30 mg/kg
[9] = system: Mus musculus; test: In vivo agonist activity against PPARalpha/delta assessed as upregulation of Vnn1 mRNA expression in C57BL/6Nifdc mouse liver at 10 mg/kg, po for 4 days; format: functional, organism-based; settings: time 4.0 day
[10] = system: Mus musculus; test: In vivo agonist activity against PPARalpha/delta assessed as upregulation of Aldh3a2 mRNA expression in C57BL/6Nifdc mouse liver at 10 mg/kg, po for 4 days; format: functional, organism-based; settings: time 4.0 day
[11] = system: Mus musculus; test: In vivo agonist activity against PPARalpha/delta assessed as upregulation of Cpt2 mRNA expression in C57BL/6Nifdc mouse skeletal muscle at 10 mg/kg, po for 4 days; format: functional, organism-based; settings: time 4.0 day
[12] = system: AML12; test: Agonist activity against PPARalpha/delta (unknown origin) assessed as upregulation of Cpt1A mRNA expression in […] cells incubated for 12 hrs by RT-PCR analysis; format: cell-based; settings: filed as agonist, dose 8-200 nM
[13] = system: Mus musculus; test: Anti-NASH activity in HF-CDAA-induced nonalcoholic steatohepatitis C57BL/6JNifdc mouse model assessed as reduction in steatosis by measuring hepatic triglyceride level at 3 to 30 mg/kg, po; format: functional, organism-based; settings: dose 3-30 mg/kg
[14] = system: Mus musculus; test: Anti-fibrosis effect in HF-CDAA-induced nonalcoholic steatohepatitis C57BL/6JNifdc mouse model assessed as expression of Tgfb1 marker at 10 mg/kg, po after 20 hrs by Western blot analysis; format: functional, organism-based
[15] = target: T2, Peroxisome proliferator-activated receptor gamma (Mus musculus, UniProt P37238); test: Agonist activity at mouse PPARgamma in Cos7 cells transfected with pBIND and pGL4.35 Gal4 UAS Luc reporter plasmid by measuring luciferase activity incubated for 16 hrs by luciferase reporter gene assay
T2 sequence (P37238 whole entry): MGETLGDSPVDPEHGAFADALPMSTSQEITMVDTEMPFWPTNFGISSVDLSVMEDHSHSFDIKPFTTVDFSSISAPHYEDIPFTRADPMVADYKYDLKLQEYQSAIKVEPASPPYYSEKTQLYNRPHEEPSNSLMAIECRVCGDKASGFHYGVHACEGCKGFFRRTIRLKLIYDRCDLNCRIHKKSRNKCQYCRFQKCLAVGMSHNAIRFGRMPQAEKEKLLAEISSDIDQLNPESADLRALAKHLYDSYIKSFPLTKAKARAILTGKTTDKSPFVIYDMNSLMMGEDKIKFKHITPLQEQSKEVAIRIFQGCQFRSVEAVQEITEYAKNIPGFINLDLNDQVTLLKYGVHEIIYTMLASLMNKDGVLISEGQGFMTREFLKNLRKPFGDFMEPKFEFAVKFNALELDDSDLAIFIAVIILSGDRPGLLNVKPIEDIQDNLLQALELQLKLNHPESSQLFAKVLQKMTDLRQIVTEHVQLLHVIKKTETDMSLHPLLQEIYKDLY

[16] = system: Mus musculus; test: In vivo agonist activity against PPARalpha/delta assessed as upregulation of […] mRNA expression in C57BL/6Nifdc mouse skeletal muscle at 10 mg/kg, po for 4 days; format: functional, organism-based; settings: time 4.0 day
[17] = target: T3, Peroxisome proliferator-activated receptor delta (Mus musculus, UniProt P35396); test: Agonist activity at mouse PPARdelta in Cos7 cells transfected with pBIND and pGL4.35 Gal4 UAS Luc reporter plasmid by measuring luciferase activity incubated for 16 hrs by luciferase reporter gene assay
T3 sequence (P35396 whole entry): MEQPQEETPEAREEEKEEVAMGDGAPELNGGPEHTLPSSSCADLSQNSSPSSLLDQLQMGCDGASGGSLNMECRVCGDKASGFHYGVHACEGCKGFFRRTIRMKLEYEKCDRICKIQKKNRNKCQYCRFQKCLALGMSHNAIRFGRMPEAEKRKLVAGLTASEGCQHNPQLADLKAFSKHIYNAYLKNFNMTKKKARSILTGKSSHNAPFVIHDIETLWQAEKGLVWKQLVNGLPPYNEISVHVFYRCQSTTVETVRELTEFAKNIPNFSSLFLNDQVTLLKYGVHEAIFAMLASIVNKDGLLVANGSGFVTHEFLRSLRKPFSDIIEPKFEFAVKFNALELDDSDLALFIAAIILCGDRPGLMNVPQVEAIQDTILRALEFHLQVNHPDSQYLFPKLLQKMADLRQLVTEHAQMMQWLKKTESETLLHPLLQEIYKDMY

[18] = system: Mus musculus; test: In vivo agonist activity at PPARalpha/delta assessed as upregulation of Akr1c18 mRNA expression in C57BL/6Nifdc mouse liver at 10 mg/kg, po for 4 days; format: functional, organism-based; settings: time 4.0 day

Compound: Cc1cc(Cn2ncn(-c3ccc(OC(F)(F)F)cc3)c2=O)cc(C)c1OC(C)(C)C(=O)O
- Activity [1]: Active
- EC50 [2]: 16.8 nM
- Activity [3]: Active
- Activity [4]: Active
- Activity [5]: Active
- Activity [6]: Active
- Activity [7]: Active
- Activity [8]: Active
- Activity [9]: Active
- Activity [10]: Active
- Activity [11]: Active
- Activity [12]: Dose-Dependent Effect
- Activity [13]: Active
- Activity [14]: Active
- EC50 [15]: 1010 nM
- Activity [16]: Active
- EC50 [17]: 19.7 nM
- Activity [18]: Active
